Test results from US10874669B2 (WAYNE STATE UNIVERSITY, priority 2018, dated 2020).

Legend:
PC12 cells = test: DCFDA fluorescence assay of intracellular ROS induced by 6-OHDA; format: cell-based, rat; settings: 20 μM, 24 h pretreatment, then 75 μM 6-OHDA 1 h
Experimental: Experimental detection of reactive oxygen species (ROS) produced by 6-OHDA was carried out by DCFDA assay. 6-OHDA, a well known neurotoxin, produces oxidative stress similar to what is observed in PD and the mechanism of neurotoxicity of 6-OHDA takes place via its auto-oxidation and subsequent generation of hydrogen peroxide. DCFDA is a non-fluorogenic dye but in the presence of ROS, it is oxidized to produce DCF which produces florescence. We have previously shown that 6-OHDA causes cell death in a dose-dependent manner. We chose 75 μM 6-OHDA as we have shown that this dose induces 40-50% cell death. […] However, the test compounds could dose dependently decrease the production of ROS induced by 6-OHDA (75 μM) in PC12 cells. In this regard, highest dose of all the three compounds was the most efficacious in producing significant antioxidant effect.
PC12 cells (ATCC CRL1721.1, Manassas, Va., USA), a rat adrenal pheochromocytoma cell line, were cultured in T-75 flasks (Greiner Bio One, Frickenhausen, Germany) and maintained in RPMI 1640 medium supplemented with 10% heat inactivated horse serum, 5% fetal bovine sérum, 100 U/ml penicillin, and 100 μg/mL streptomycin at 37° C. in 95% air/5% CO2. […]
PC12 cells were plated at 30,000 cells/well density in 100 μL media in 96-well black plates and incubated at 37° C. under 5% CO2 atmosphere for 24 h. […] After incubation for 1 h, the fluorescence was measured using spectrophotometer fluorescence generated microplate reader (Biotek Epoch, Winooski, Vt., USA) at excitation 497 nm and emission at 527 nm. […] The specific fluorescence emission was calculated after subtraction of the DCFDA untreated control cells from the DCFDA treated cells for both the background and 1 h treatment conditions. This was followed by the division of the 1 h treatment data by the background activity which was determined from vials before treatment with 6-OHDA, to derive the final data point.

cloned rat D2L receptors = cloned rat D2L receptors (Rattus norvegicus (Rat), UniProt P61169); test: [3H]spiroperidol competition binding, rat D2L receptors in HEK-293 cells; settings: values of Table 3; for Ki: rat D2 in HEK-293 cells; for D2/D3: ratio of Ki values
Excerpt: All these procedures were described by us previously.

α-syn = α-syn (Homo sapiens (Human), UniProt P37840); test: Thioflavin T assay of α-syn aggregation seeded with 0.5% PFFs; format: biochemical; settings: 172.9 μM compound, 30D, 37° C., no agitation
Experimental: The α-syn assay was carried out by following the procedures developed by us earlier. The compounds (−)-91b (D636) and (−)-95a (D653) were incubated with α-syn seeded with 0.5% PFFs for a period of 30D at 37° C. without agitation. […] Both (−)-91b and (−)-95a lead to a significant decrease in the ThT fluorescence (p<0.0001) when compared to α-syn seeded with 0.5% PFFs alone at 30D (FIG. 5A).
The experimental conditions were followed as described in our earlier publication. Briefly, α-syn fibrils were formed by incubating purified α-syn at a concentration of 5 mg/mL at 37° C. under constant agitation at 1000 rpm in a Thermomix R shaker (Eppendorf, Hamburg, Germany) for a period of 5 days. These fibrils at a concentration of 0.5% were used to seed the aggregation of α-syn at 1.25 mg/ml (86.45 μM) with or without compounds D636 or D653 at a concentration of 172.9 μM without agitation at 37° C. for a period of 30 days. Samples were collected at 0D and 30D. Thioflavin T (ThT) assay was performed using these samples as described previously to evaluate the extent of aggregation.

Chain of cloned rat D2L receptors (P61169 whole entry): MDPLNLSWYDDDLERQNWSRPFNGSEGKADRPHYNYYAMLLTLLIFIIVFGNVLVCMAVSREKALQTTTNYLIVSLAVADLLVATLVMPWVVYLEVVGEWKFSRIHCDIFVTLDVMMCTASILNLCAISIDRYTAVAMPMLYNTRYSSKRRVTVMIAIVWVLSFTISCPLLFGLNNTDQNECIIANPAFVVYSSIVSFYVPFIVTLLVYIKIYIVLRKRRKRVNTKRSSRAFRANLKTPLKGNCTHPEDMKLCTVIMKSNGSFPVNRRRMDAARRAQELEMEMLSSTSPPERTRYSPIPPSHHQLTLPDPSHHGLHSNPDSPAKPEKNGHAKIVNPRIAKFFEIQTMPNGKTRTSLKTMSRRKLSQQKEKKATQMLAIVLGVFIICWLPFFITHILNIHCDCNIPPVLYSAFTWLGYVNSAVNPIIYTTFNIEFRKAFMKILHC

Row | SMILES | reduction in ROS (PC12 cells) | Ki (cloned rat D2L receptors) | D2/D3 (cloned rat D2L receptors) | decrease in ThT fluorescence compared to seeded α-syn (α-syn)
1 | CCCN(CCN1CCN(c2ccc3[nH]c4ccccc4c3c2)CC1)[C@H]1CCc2nc(N)sc2C1 [(−)-91b, (S)—N^6-(2-(4-(9H-carbazol-3-yl)piperazin-1-yl)ethyl)-N^6-propyl-4,5,6,7-tetrahydrobenzo[d]thiazole-2,6-diamine] | 76% | 135 nM | 35 | 16 fold
2 | CCCN(CCN1CCN(c2ccc3c(c2)[nH]c2ccccc23)CC1)[C@H]1CCc2c(O)cccc2C1 [Compound (−)-95a, (S)-6-((2-(4-(9H-carbazol-2-yl)piperazin-1-yl)ethyl)(propyl)amino)-5,6,7,8-tetrahydronaphthalen-1-ol] | 93% | 71.2 nM | 177 | 3 fold
